# Data: PubChem BioAssay AID1963985 (Molecular Pharmacology Branch, DTP, NCI, 2024)
# Several values for one entry are separate records, joined by “and”; a condition that tells them apart may be missing. Identical values can stand only once.
# Test system: 252836-082-R-J2-PDC tumor spheroids, viability
# Assay: Anticancer human tumor 252836-082-R-J2-PDC patient-derived head and neck squamous cell carcinoma cell line growth inhibition [PI3K]
# Conditions: spheroids with HUVEC and MSC; for viability, T/C: stronger effect = lower value
# Procedure, shortened: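 Stroma-containing spheroids: tumor line, pooled-donor HUVEC, hMSC. Treatments: targeted agents with PI3K inhibitors. Dosing: clinically relevant, half-log spacing, 10 microM ceiling without known Cmax. Read-out: cell viability.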
# [1] = curve of first compound, second compound 0.0316 µM
# [2] = curve of first compound, second compound 0.1 µM
# [3] = curve of first compound, second compound 0.316 µM
# [4] = curve of first compound, second compound 1 µM
# [5] = curve of first compound, second compound 3.16 µM
# [6] = curve of first compound, second compound 10 µM
# [7] = second compound 0.0316 µM, first compound 0.0316 µM
# [8] = second compound 0.0316 µM, first compound 0.1 µM
# [9] = second compound 0.0316 µM, first compound 0.316 µM
# [10] = second compound 0.0316 µM, first compound 1 µM
# [11] = second compound 0.0316 µM, first compound 3.16 µM
# [12] = second compound 0.0316 µM, first compound 10 µM
# [13] = second compound 0.1 µM, first compound 0.0316 µM
# [14] = second compound 0.1 µM, first compound 0.1 µM
# [15] = second compound 0.1 µM, first compound 0.316 µM
# [16] = second compound 0.1 µM, first compound 1 µM
# [17] = second compound 0.1 µM, first compound 3.16 µM
# [18] = second compound 0.1 µM, first compound 10 µM
# [19] = second compound 0.316 µM, first compound 0.0316 µM
# [20] = second compound 0.316 µM, first compound 0.1 µM
# [21] = second compound 0.316 µM, first compound 0.316 µM
# [22] = second compound 0.316 µM, first compound 1 µM
# [23] = second compound 0.316 µM, first compound 3.16 µM
# [24] = second compound 0.316 µM, first compound 10 µM
# [25] = second compound 1 µM, first compound 0.0316 µM
# [26] = second compound 1 µM, first compound 0.1 µM
# [27] = second compound 1 µM, first compound 0.316 µM
# [28] = second compound 1 µM, first compound 1 µM
# [29] = second compound 1 µM, first compound 3.16 µM
# [30] = second compound 1 µM, first compound 10 µM
# [31] = second compound 3.16 µM, first compound 0.0316 µM
# [32] = second compound 3.16 µM, first compound 0.1 µM
# [33] = second compound 3.16 µM, first compound 0.316 µM
# [34] = second compound 3.16 µM, first compound 1 µM
# [35] = second compound 3.16 µM, first compound 3.16 µM
# [36] = second compound 3.16 µM, first compound 10 µM
# [37] = second compound 10 µM, first compound 0.0316 µM
# [38] = second compound 10 µM, first compound 0.1 µM
# [39] = second compound 10 µM, first compound 0.316 µM
# [40] = second compound 10 µM, first compound 1 µM
# [41] = second compound 10 µM, first compound 3.16 µM
# [42] = second compound 10 µM, first compound 10 µM
# 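Note: spheroids exposed to agents for seven days before readout.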
# 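Throughout, for viability, T/C: percent of vehicle DMSO control viability so 100% = untreated growth.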
smiles,measurement,setting,value
CC(Nc1ncnc2nc[nH]c12)c1cc2cccc(Cl)c2c(=O)n1-c1ccccc1 (centres undefined),"viability, T/C",compound 0.0316 µM,96.2% [middle of 8 runs]
same,"viability, T/C",compound 0.1 µM,95.5% [middle of 8 runs]
same,"viability, T/C",compound 0.316 µM,97.4% [middle of 8 runs]
same,"viability, T/C",compound 3.16 µM,78.1% [middle of 8 runs]
same,"viability, T/C",compound 10 µM,64.3% [middle of 8 runs]
same,IC50,"compound alone, run of 06/13/2023",> 10 µM
CC1(C)CCC(CN2CCN(c3ccc(C(=O)NS(=O)(=O)c4ccc(NCC5CCOCC5)c([N+](=O)[O-])c4)c(Oc4cnc5[nH]ccc5c4)c3)CC2)=C(c2ccc(Cl)cc2)C1 + CC(Nc1ncnc2nc[nH]c12)c1cc2cccc(Cl)c2c(=O)n1-c1ccccc1,IC50,[1],> 10 µM
same,IC50,[2],> 10 µM
same,IC50,[3],> 10 µM
same,IC50,[4],> 10 µM
same,IC50,[5],> 10 µM
same,IC50,[6],> 10 µM
same,"viability, T/C",[7],96.7%
same,"viability, T/C",[8],88.3%
same,"viability, T/C",[9],95.9%
same,"viability, T/C",[10],93%
same,"viability, T/C",[11],87.3%
same,"viability, T/C",[12],81.8%
same,"viability, T/C",[13],102%
same,"viability, T/C",[14],77.1%
same,"viability, T/C",[15],79%
same,"viability, T/C",[16],99.1%
same,"viability, T/C",[17],80.8%
same,"viability, T/C",[18],86.7%
same,"viability, T/C",[19],92.5%
same,"viability, T/C",[20],100%
same,"viability, T/C",[21],102%
same,"viability, T/C",[22],106%
same,"viability, T/C",[23],88.3%
same,"viability, T/C",[24],81.6%
same,"viability, T/C",[25],81%
same,"viability, T/C",[26],89.8%
same,"viability, T/C",[27],77.5%
same,"viability, T/C",[28],93.8%
same,"viability, T/C",[29],92.1%
same,"viability, T/C",[30],96%
same,"viability, T/C",[31],80.5%
same,"viability, T/C",[32],84%
same,"viability, T/C",[33],71.8%
same,"viability, T/C",[34],81.2%
same,"viability, T/C",[35],67%
same,"viability, T/C",[36],65.7%
same,"viability, T/C",[37],61%
same,"viability, T/C",[38],64.3%
same,"viability, T/C",[39],68.6%
same,"viability, T/C",[40],65.8%
same,"viability, T/C",[41],50.4%
same,"viability, T/C",[42],55.1%
CC(Nc1ccc2c(c1)OCCn1cc(N3C(=O)OCC3C(F)F)nc1-2)C(N)=O (centres undefined),"viability, T/C",compound 0.00316 µM,93% [middle of 8 runs]
same,"viability, T/C",compound 0.01 µM,96.8% [middle of 8 runs]
same,"viability, T/C",compound 0.0316 µM,81% [middle of 8 runs]
same,"viability, T/C",compound 0.1 µM,65.7% [middle of 8 runs]
same,"viability, T/C",compound 0.316 µM,51.8% [middle of 8 runs]
same,"viability, T/C",compound 1 µM,47.7% [middle of 8 runs]
Cn1cnc2c(F)c(Nc3ccc(Br)cc3Cl)c(C(=O)NOCCO)cc21,"viability, T/C",compound 0.00949 µM,80.3% and 86.2% (2×) and 89.4%
same,"viability, T/C",compound 0.03 µM,93.8% [middle of 4 runs]
same,"viability, T/C",compound 0.0949 µM,81.6% [middle of 4 runs]
same,"viability, T/C",compound 0.3 µM,86.9% [middle of 4 runs]
same,"viability, T/C",compound 0.949 µM,72.7% [middle of 4 runs]
same,"viability, T/C",compound 3 µM,49.5% [middle of 4 runs]
C[C@@H](NC(=O)c1ncnc(N)c1Cl)c1ncc(C(=O)Nc2cc(C(F)(F)F)c(Cl)cn2)s1 + CC(Nc1ncnc2nc[nH]c12)c1cc2cccc(Cl)c2c(=O)n1-c1ccccc1,IC50,[1],> 10 µM
same,IC50,[2],> 10 µM
same,IC50,[3],> 10 µM
same,IC50,[4],> 10 µM
same,IC50,[5],> 10 µM
same,IC50,[6],> 10 µM
same,"viability, T/C",[7],109%
same,"viability, T/C",[8],97.1%
same,"viability, T/C",[9],100%
same,"viability, T/C",[10],105%
same,"viability, T/C",[11],103%
same,"viability, T/C",[12],74%
same,"viability, T/C",[13],96.3%
same,"viability, T/C",[14],94.7%
same,"viability, T/C",[15],86.7%
same,"viability, T/C",[16],92.1%
same,"viability, T/C",[17],94.5%
same,"viability, T/C",[18],82.3%
same,"viability, T/C",[19],90.1%
same,"viability, T/C",[20],89.7%
same,"viability, T/C",[21],98.5%
same,"viability, T/C",[22],99.4%
same,"viability, T/C",[23],94.3%
same,"viability, T/C",[24],86.5%
same,"viability, T/C",[25],96.8%
same,"viability, T/C",[26],89.9%
same,"viability, T/C",[27],90.7%
same,"viability, T/C",[28],92.7%
same,"viability, T/C",[29],97.8%
same,"viability, T/C",[30],88.6%
same,"viability, T/C",[31],73.5%
same,"viability, T/C",[32],84.5%
same,"viability, T/C",[33],89.5%
same,"viability, T/C",[34],93.1%
same,"viability, T/C",[35],72.7%
same,"viability, T/C",[36],70.1%
same,"viability, T/C",[37],70.8%
same,"viability, T/C",[38],69%
same,"viability, T/C",[39],55.5%
same,"viability, T/C",[40],64.5%
same,"viability, T/C",[41],72.1%
same,"viability, T/C",[42],65.4%
Cc1nc(NC(=O)N2CCCC2C(N)=O)sc1-c1ccnc(C(C)(C)C(F)(F)F)c1 (centres undefined),"viability, T/C",compound 0.0316 µM,86.2% [middle of 8 runs]
same,"viability, T/C",compound 0.1 µM,88.9% [middle of 8 runs]
same,"viability, T/C",compound 0.316 µM,81% [middle of 8 runs]
same,"viability, T/C",compound 1 µM,62.9% [middle of 8 runs]
same,"viability, T/C",compound 3.16 µM,48% [middle of 8 runs]
same,"viability, T/C",compound 10 µM,35% [middle of 8 runs]
same,IC50,"compound alone, run of 06/12/2023",2.64 µM [middle of 8 runs]
